Data on three molecules can be found in US20020160441A1, “Protein elongation factor 2 as a target for antifungal and antiparasitic agents” (Merck & Co., Inc., priority 1998, published 2002).

The target of one test is T1, rat EF2 (Rattus norvegicus, UniProt P05197).
T1 construct: from tissue; host or cells: rat liver
Description: Binding assay with purified components, rat EF2. Particulars: yeast EF2 replaced by rat (liver) EF2. As to the method:
(§1) This assay involves the same procedure as disclosed above substituting 0.4 A260 units salt-washed S. cerevisiae ribosomes and 1 pmol purified EF2 for the 10 μg S30 in the above assay. The ribosomes and EF2 are both prepared by published methods (L. Skogerson, Methods in Enzymology, Vol LX,p676-685).
(§2) As with the S30 binding assay, this assay may be used to either identify the component binding drug, or to examine competition by unknown agents.

For test [1], the target named is T2, Saccharomyces cerevisiae EF2 in crude S30 extracts (Saccharomyces cerevisiae, UniProt P32324).
T2 construct: A Saccharomyces cerevisiae strain containing wild-type EF2 is inoculated into medium; endogenous in cells; host or cells: Saccharomyces cerevisiae strain with wild-type EF2, S30 extract
T2 sequence (P32324 whole entry): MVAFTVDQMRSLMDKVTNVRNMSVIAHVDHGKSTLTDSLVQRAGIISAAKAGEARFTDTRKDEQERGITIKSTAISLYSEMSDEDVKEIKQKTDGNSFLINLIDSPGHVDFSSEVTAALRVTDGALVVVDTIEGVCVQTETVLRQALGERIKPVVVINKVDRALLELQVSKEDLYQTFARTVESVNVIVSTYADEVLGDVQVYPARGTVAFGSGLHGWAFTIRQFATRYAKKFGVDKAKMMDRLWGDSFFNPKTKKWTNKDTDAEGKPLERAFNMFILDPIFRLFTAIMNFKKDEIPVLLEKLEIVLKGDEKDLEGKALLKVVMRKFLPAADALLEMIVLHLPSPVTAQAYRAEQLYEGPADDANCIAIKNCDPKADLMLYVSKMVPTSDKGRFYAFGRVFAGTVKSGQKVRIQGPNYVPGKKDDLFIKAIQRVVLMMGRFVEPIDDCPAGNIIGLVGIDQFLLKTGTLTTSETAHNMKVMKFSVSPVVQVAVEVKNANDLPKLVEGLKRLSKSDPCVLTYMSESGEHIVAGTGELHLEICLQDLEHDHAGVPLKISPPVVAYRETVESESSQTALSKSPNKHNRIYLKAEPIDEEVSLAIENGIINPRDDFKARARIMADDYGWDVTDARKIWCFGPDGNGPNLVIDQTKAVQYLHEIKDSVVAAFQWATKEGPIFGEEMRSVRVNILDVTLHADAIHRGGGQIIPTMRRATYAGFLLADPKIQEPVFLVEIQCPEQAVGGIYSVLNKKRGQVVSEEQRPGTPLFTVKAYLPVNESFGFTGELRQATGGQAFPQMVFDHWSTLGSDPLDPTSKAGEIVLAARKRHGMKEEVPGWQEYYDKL
As to the kind of experiment: Competitive binding assay, Saccharomyces S30 extract. The note with it: for displacement of ^3H-Compound I binding (in words): unlabelled competitor. How it is done: (§3) A competitive assay can be performed involving the displacement of a radiolabeled compound with specificity for pathogen EF2 such as ^3H-Compound I binding to Saccharomyces cerevisiae EF2 in crude S30 extracts. As proof of the specificity of inhibitor found with the S30 binding assay, binding competition can also be performed with purified EF2 in the presence of washed ribosomes
In a microfuge tube 100 μl assay mixture contains: 10 μg yeast S-30, 25 μM GTP-γ-s (0.5 μl of 5 mM stock), dilutions of agent to be examined for ability to compete for binding and Buffer B to bring volume to 98 μl. Vortex and incubate at room temperature 5 min. Add 2 μl ^3H-Compound I (1:20 dilution in water). Vortex and incubate for 20-30 min.
To a Sephadex G-75 column was pre-soaked in Buffer A (20 gm/400 ml) several hours. Mini columns were packed with G-75 precisely to the mark line (˜1.6 ml ) and allowed to settle by washing with 2 ml Buffer A.
The 100μl incubated mixtures are loaded onto G-75 columns (no collection) As soon as the sample has entered the gel bed (approximately 20 sec), 0.7 ml Buffer A is added and eluate is collected in mini vials 3 ml Scintiverse is added and vials counted.
Saccharomyces S30 extract: A Saccharomyces cerevisiae strain containing wild-type EF2 is inoculated into medium containing in g/l: 10 g Bacto Yeast Extract, 20 g Bacto Peptone, 20 g dextrose and 60 mg adenine and incubated with shaking at 30° C. until mid to late logarithmic phase (A600˜2). The cells are harvested and washed twice with water. Pellets may be stored at −70° C. indefinitely prior to disruption. For breakage, cells are resuspended in 2 vol of buffer containing 50 mM Tris-Cl pH 7.4, 10% (wt/vol) glycerol, 2 mM MgCl2, 2 mM dithiothreitol, 1 mM phenylmethylsulfonyl fluoride and broken by prolonged agitation with acid-washed 0.5 mm glass beads. The supernatant is centrifuged at […] for 15 min to sediment cell debris.

The target of test [2] is T3, purified Saccharomyces EF2 (Saccharomyces cerevisiae, UniProt P32324).
T3 construct: The ribosomes and EF2 are both prepared by published methods; endogenous in cells; host or cells: Saccharomyces cerevisiae; EF2 purified by the method of Skogerson, Methods in Enzymology LX
T3 sequence (P32324 whole entry): as above
Description: Binding assay with purified components, Saccharomyces EF2. The note with it: for binding of labelled compound (in words): yeast EF2. As to the method:
as §1, §2

A further test deals with wheat germ EF2. As to the kind of experiment: Binding assay with purified components, wheat germ EF2. Particulars: yeast EF2 replaced by wheat germ EF2. As to the method: as §1, §2
For another test, the system named is wheat germ S30 extracts. Description: Binding assay with wheat germ S30 extracts.
Text: as §3
(§4) The binding is displaceable by unlabelled L-793,422, sordarin and analogs. No binding is seen with mammalian cell or wheat germ S30 extracts.

Test [3] has as its system mammalian cell S30 extracts. Description: Binding assay with mammalian cell S30 extracts.
Text: as §3, §4

The subject of test [4] is S. cerevisiae sordarin sensitive strain (sS1). As to the kind of experiment: Growth inhibition assay I, sordarin sensitive strain. The format is cell-based. The note with it: Saccharomyces cerevisiae; 0.5 μg applied; agar plate, 30° C., 16-24 hours; read-out: clear zone of inhibition. The source says:
(§5) An assay has been developed to identify antifungal compounds with sordarin like activities using S. cerevisiae as as a surrogate organism. It consists of a two plate differential zone assay using sordarin sensitive (sS1) and resistant strains (sR1) that contain an erg6 deletion, which increases membrane permeability and facilitates the uptake of various substances. In this screen, active compounds show a clear zone on the sensitive strain plate and no zone for the resistant strain plate.
(§6) Approximately 1×10^6 cells per ml are added to growth medium containing 2% agar. Medium and cells are mixed, poured into plates, and allowed to solidify. Test compounds or fermentation extracts are applied with the intent of identifying samples which inhibit the growth of these yeast. The cultures are incubated at 30° C. for 16-24 hours. A similar assay can also be run in a high-throughput microtiter format by inoculating cells into liquid growth medium containing test compounds or fermentation extracts. Active compounds can be identified by assaying for growth inhibition, which can be determined by measuring the optical density of the individual cultures.

Test [5] relates to S. cerevisiae sordarin resistant strain (sR1). As to the kind of experiment: Growth inhibition assay I, sordarin resistant strain. The test is classed as cell-based, Saccharomyces cerevisiae. The note with it: 0.5 μg applied; agar plate, 30° C., 16-24 hours.
Text: as §5, §6

For `CC(C)COCC12CC3C(C)CCC3[C@@]3(C=O)C[C@@H]1C=C(C(C)C)[C@@]23C(=O)O` (stereo partly drawn) [^3H-Compound I], the “binding of labelled compound (in words)” value on rat EF2 (listed as 3H-L793,422) is on record as “abolishes binding”; at rat EF2 (listed as labelled compound), “abolishes binding to background levels”; in test [1] (Saccharomyces S30 extracts), “Specific binding”; in test [2] (yeast ribosomes replaced by rat (liver) ribosomes, listed as 3H-L793,422), “no effect on binding”; in test [2] (yeast ribosomes replaced by rat (liver) ribosomes, listed as labelled compound), “does not reduce binding”; in test [2] (yeast ribosomes replaced by wheat germ ribosomes, listed as 3H-L793,422), “no effect on binding”. Also, the “binding of labelled compound (in words)” value in test [2] (yeast ribosomes replaced by wheat germ ribosomes, listed as labelled compound) is on record as “does not reduce binding”; in the test on wheat germ EF2 (listed as 3H-L793,422) it was “abolishes binding”; in the test with wheat germ EF2 (listed as labelled compound), “abolishes binding to background levels”; with wheat germ S30 extracts it was “No binding”; in test [3] it was “No binding”. Besides, the “amount of labelled compound bound” value is “approximately 0.5 pmol” in test [1] (10 μg S30 extract from wild-type Saccharomyces) and “approximately 0.6 pmol” in test [2] (0.65 pmol purified Saccharomyces EF2 plus 4 pmol purified Saccharomyces ribosomes).
Take `CO[C@H]1[C@@H](O)[C@H](O)[C@H](OC[C@@]23C[C@@H]4[C@H](C)CC[C@H]4[C@@]4(C=O)CC2C=C(C(C)C)[C@@]34C(=O)O)O[C@@H]1C` [sordarin, reference compound]: in test [1] (10 μg S30 extract from wild-type Saccharomyces, read-out: IC50 for displacement of ^3H-Compound I binding (converted)), the IC50 was 6.09 nM. For the same molecule, the “displacement of ^3H-Compound I binding (in words)” value in test [1] (Saccharomyces S30 extracts) is listed as “displaceable”. Moreover, the zone of inhibition at 0.5 µg/disc in test [4] is 20 mm. In addition, in test [5], the “zone of inhibition (in words)” value is recorded as “no zone”.
Consider `CC(C)COCC12CC3C(C)CCC3[C@@]3(C=O)C[C@@H]1C=C(C(C)C)[C@@]23C(=O)O` (stereo partly drawn) [Compound I], for which the “displacement of ^3H-Compound I binding (in words)” value in test [1] (Saccharomyces S30 extracts) is on record as “displaceable”.
